Starred links: 1 amine or outer side, 2 acyl side, 3 side chain; linkers in the order of their positions; H or OH if unused. Positions of bridges follow the written chain, without caps; N, C: chain ends. Non-standard residues stand in square brackets, D forms with d. Residues, ends and D or L forms follow the SMILES beside them. *: point of attachment. hTyr(3S-OH,4S-OH,3'-OSO3H) = N[C@H](C(=O)O)[C@H](O)[C@@H](O)c1ccc(O)c(OS(=O)(=O)O)c1; Orn(4R-OH,5R-OH) = O=C([C@H](C[C@@H](O)[C@@H](O)N[*:3])N[*:1])[*:2]; Pro(3S-OH,4S-Me) = C[C@H]1CN[C@H](C(=O)O)[C@H]1O; X1 = CCCCCOc1ccc(-c2cc(-c3ccc(C(=O)*)cc3)no2)cc1; Gln(3R-OH) = NC(=O)C[C@@H](O)[C@H](N)C(=O)O; Hyp = O=C(O)[C@@H]1C[C@@H](O)CN1
Assay: Ratio of dry weight to wet weight (Dry/Wet) of filtered solids
Assay type: physicochemical
Details: wet solids weighed after filtration, before drying
Description: As used herein, the term “Dry/Wet” and “ratio of dry weight to wet weight” can be used interchangeably, both of which refer to the ratio of the weight of a compound without solvent(s) to the weight of the compound with solvent(s). In the present invention, wet weight of crystals is obtained by filtering the crystallized solids until no noticeable droplet outflows and weighing the solids.
For `CCCCCOc1ccc(-c2cc(-c3ccc(C(=O)N[C@H]4C[C@@H](O)[C@@H](O)NC(=O)[C@@H]5[C@@H](O)[C@@H](C)CN5C(=O)[C@H]([C@H](O)CC(N)=O)NC(=O)[C@H]([C@H](O)[C@@H](O)c5ccc(O)c(OS(=O)(=O)[O-])c5)NC(=O)[C@@H]5C[C@@H](O)CN5C(=O)[C@H]([C@@H](C)O)NC4=O)cc3)no2)cc1.[Na+]` [Comparative Example 11] (X1-[Orn(4R-OH,5R-OH)]T[Hyp][hTyr(3S-OH,4S-OH,3'-OSO3H)][Gln(3R-OH)][Pro(3S-OH,4S-Me)]; lactam 1-C), the “ratio of dry weight to wet weight (Dry/Wet)” value (from here on “ratio … (Dry/Wet)”) was 0.11.
For `CCCCCOc1ccc(-c2cc(-c3ccc(C(=O)N[C@H]4C[C@@H](O)[C@@H](O)NC(=O)[C@@H]5[C@@H](O)[C@@H](C)CN5C(=O)[C@H]([C@H](O)CC(N)=O)NC(=O)[C@H]([C@H](O)[C@@H](O)c5ccc(O)c(OS(=O)(=O)[O-])c5)NC(=O)[C@@H]5C[C@@H](O)CN5C(=O)[C@H]([C@@H](C)O)NC4=O)cc3)no2)cc1.[Na+]` [Comparative Example 7] (X1-[Orn(4R-OH,5R-OH)]T[Hyp][hTyr(3S-OH,4S-OH,3'-OSO3H)][Gln(3R-OH)][Pro(3S-OH,4S-Me)]; lactam 1-C), the “ratio … (Dry/Wet)” value was 0.2.
In the case of `CCCCCOc1ccc(-c2cc(-c3ccc(C(=O)N[C@H]4C[C@@H](O)[C@@H](O)NC(=O)[C@@H]5[C@@H](O)[C@@H](C)CN5C(=O)[C@H]([C@H](O)CC(N)=O)NC(=O)[C@H]([C@H](O)[C@@H](O)c5ccc(O)c(OS(=O)(=O)[O-])c5)NC(=O)[C@@H]5C[C@@H](O)CN5C(=O)[C@H]([C@@H](C)O)NC4=O)cc3)no2)cc1.[Na+]` [Comparative Example 4] (X1-[Orn(4R-OH,5R-OH)]T[Hyp][hTyr(3S-OH,4S-OH,3'-OSO3H)][Gln(3R-OH)][Pro(3S-OH,4S-Me)]; lactam 1-C), the “ratio … (Dry/Wet)” value is reported as 0.19.
In the case of `CCCCCOc1ccc(-c2cc(-c3ccc(C(=O)N[C@H]4C[C@@H](O)[C@@H](O)NC(=O)[C@@H]5[C@@H](O)[C@@H](C)CN5C(=O)[C@H]([C@H](O)CC(N)=O)NC(=O)[C@H]([C@H](O)[C@@H](O)c5ccc(O)c(OS(=O)(=O)[O-])c5)NC(=O)[C@@H]5C[C@@H](O)CN5C(=O)[C@H]([C@@H](C)O)NC4=O)cc3)no2)cc1.[Na+]` [Comparative Example 5] (X1-[Orn(4R-OH,5R-OH)]T[Hyp][hTyr(3S-OH,4S-OH,3'-OSO3H)][Gln(3R-OH)][Pro(3S-OH,4S-Me)]; lactam 1-C), the “ratio … (Dry/Wet)” value is reported as 0.18.
For `CCCCCOc1ccc(-c2cc(-c3ccc(C(=O)N[C@H]4C[C@@H](O)[C@@H](O)NC(=O)[C@@H]5[C@@H](O)[C@@H](C)CN5C(=O)[C@H]([C@H](O)CC(N)=O)NC(=O)[C@H]([C@H](O)[C@@H](O)c5ccc(O)c(OS(=O)(=O)[O-])c5)NC(=O)[C@@H]5C[C@@H](O)CN5C(=O)[C@H]([C@@H](C)O)NC4=O)cc3)no2)cc1.[Na+]` [Comparative Example 6] (X1-[Orn(4R-OH,5R-OH)]T[Hyp][hTyr(3S-OH,4S-OH,3'-OSO3H)][Gln(3R-OH)][Pro(3S-OH,4S-Me)]; lactam 1-C), the “ratio … (Dry/Wet)” value was 0.21.
For `CCCCCOc1ccc(-c2cc(-c3ccc(C(=O)N[C@H]4C[C@@H](O)[C@@H](O)NC(=O)[C@@H]5[C@@H](O)[C@@H](C)CN5C(=O)[C@H]([C@H](O)CC(N)=O)NC(=O)[C@H]([C@H](O)[C@@H](O)c5ccc(O)c(OS(=O)(=O)[O-])c5)NC(=O)[C@@H]5C[C@@H](O)CN5C(=O)[C@H]([C@@H](C)O)NC4=O)cc3)no2)cc1.[Na+]` [Comparative Example 15] (X1-[Orn(4R-OH,5R-OH)]T[Hyp][hTyr(3S-OH,4S-OH,3'-OSO3H)][Gln(3R-OH)][Pro(3S-OH,4S-Me)]; lactam 1-C), the “ratio … (Dry/Wet)” value was 0.15.
For `CCCCCOc1ccc(-c2cc(-c3ccc(C(=O)N[C@H]4C[C@@H](O)[C@@H](O)NC(=O)[C@@H]5[C@@H](O)[C@@H](C)CN5C(=O)[C@H]([C@H](O)CC(N)=O)NC(=O)[C@H]([C@H](O)[C@@H](O)c5ccc(O)c(OS(=O)(=O)[O-])c5)NC(=O)[C@@H]5C[C@@H](O)CN5C(=O)[C@H]([C@@H](C)O)NC4=O)cc3)no2)cc1.[Na+]` [Comparative Example 14] (X1-[Orn(4R-OH,5R-OH)]T[Hyp][hTyr(3S-OH,4S-OH,3'-OSO3H)][Gln(3R-OH)][Pro(3S-OH,4S-Me)]; lactam 1-C), the “ratio … (Dry/Wet)” value was 0.19.
For `CCCCCOc1ccc(-c2cc(-c3ccc(C(=O)N[C@H]4C[C@@H](O)[C@@H](O)NC(=O)[C@@H]5[C@@H](O)[C@@H](C)CN5C(=O)[C@H]([C@H](O)CC(N)=O)NC(=O)[C@H]([C@H](O)[C@@H](O)c5ccc(O)c(OS(=O)(=O)[O-])c5)NC(=O)[C@@H]5C[C@@H](O)CN5C(=O)[C@H]([C@@H](C)O)NC4=O)cc3)no2)cc1.[Na+]` [Comparative Example 12] (X1-[Orn(4R-OH,5R-OH)]T[Hyp][hTyr(3S-OH,4S-OH,3'-OSO3H)][Gln(3R-OH)][Pro(3S-OH,4S-Me)]; lactam 1-C), the “ratio … (Dry/Wet)” value was 0.18.
With `CCCCCOc1ccc(-c2cc(-c3ccc(C(=O)N[C@H]4C[C@@H](O)[C@@H](O)NC(=O)[C@@H]5[C@@H](O)[C@@H](C)CN5C(=O)[C@H]([C@H](O)CC(N)=O)NC(=O)[C@H]([C@H](O)[C@@H](O)c5ccc(O)c(OS(=O)(=O)[O-])c5)NC(=O)[C@@H]5C[C@@H](O)CN5C(=O)[C@H]([C@@H](C)O)NC4=O)cc3)no2)cc1.[Na+]` [Comparative Example 9] (X1-[Orn(4R-OH,5R-OH)]T[Hyp][hTyr(3S-OH,4S-OH,3'-OSO3H)][Gln(3R-OH)][Pro(3S-OH,4S-Me)]; lactam 1-C) the “ratio … (Dry/Wet)” value was 0.09.
For `CCCCCOc1ccc(-c2cc(-c3ccc(C(=O)N[C@H]4C[C@@H](O)[C@@H](O)NC(=O)[C@@H]5[C@@H](O)[C@@H](C)CN5C(=O)[C@H]([C@H](O)CC(N)=O)NC(=O)[C@H]([C@H](O)[C@@H](O)c5ccc(O)c(OS(=O)(=O)[O-])c5)NC(=O)[C@@H]5C[C@@H](O)CN5C(=O)[C@H]([C@@H](C)O)NC4=O)cc3)no2)cc1.[Na+]` [Comparative Example 8] (X1-[Orn(4R-OH,5R-OH)]T[Hyp][hTyr(3S-OH,4S-OH,3'-OSO3H)][Gln(3R-OH)][Pro(3S-OH,4S-Me)]; lactam 1-C), the “ratio … (Dry/Wet)” value was 0.15.
With `CCCCCOc1ccc(-c2cc(-c3ccc(C(=O)N[C@H]4C[C@@H](O)[C@@H](O)NC(=O)[C@@H]5[C@@H](O)[C@@H](C)CN5C(=O)[C@H]([C@H](O)CC(N)=O)NC(=O)[C@H]([C@H](O)[C@@H](O)c5ccc(O)c(OS(=O)(=O)[O-])c5)NC(=O)[C@@H]5C[C@@H](O)CN5C(=O)[C@H]([C@@H](C)O)NC4=O)cc3)no2)cc1.[Na+]` [Comparative Example 10] (X1-[Orn(4R-OH,5R-OH)]T[Hyp][hTyr(3S-OH,4S-OH,3'-OSO3H)][Gln(3R-OH)][Pro(3S-OH,4S-Me)]; lactam 1-C) the “ratio … (Dry/Wet)” value was 0.23.
In the case of `CCCCCOc1ccc(-c2cc(-c3ccc(C(=O)N[C@H]4C[C@@H](O)[C@@H](O)NC(=O)[C@@H]5[C@@H](O)[C@@H](C)CN5C(=O)[C@H]([C@H](O)CC(N)=O)NC(=O)[C@H]([C@H](O)[C@@H](O)c5ccc(O)c(OS(=O)(=O)[O-])c5)NC(=O)[C@@H]5C[C@@H](O)CN5C(=O)[C@H]([C@@H](C)O)NC4=O)cc3)no2)cc1.[Na+]` [Comparative Example 13] (X1-[Orn(4R-OH,5R-OH)]T[Hyp][hTyr(3S-OH,4S-OH,3'-OSO3H)][Gln(3R-OH)][Pro(3S-OH,4S-Me)]; lactam 1-C), the “ratio … (Dry/Wet)” value is reported as 0.2.

— patent publication US10138275B2, “Crystalline powder of cyclic peptide compound, preparation method for same, and uses thereof” (SHANGHAI TECHWELL BIOPHARMACEUTICAL CO., LTD, priority 2014, dated 2018)
